Tests used:
Cbl-b [1] = target: T1, Cbl-b (Homo sapiens, UniProt Q13191); assay: Cbl-b inhibition assay (Cbl-b activity assay, FRET, Biological Example 1; 100 mM NaCl, 60 nM Src kinase); assay type: biochemical; conditions: upper bound stated in text lists; read-out: IC50 values in the Cbl-b inhibition assay of Biological Example 1
How it was run: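 Steps: Src kinase phosphorylates N-terminal biotinylated Avi-tagged Cbl-b; phosphorylated Cbl-b binds Bodipy-fluorescein ubiquitin-loaded UbcH5B; streptavidin-terbium on Cbl-b sits close to the fluorescein label, producing FRET. Inhibitors block UbcH5B-Ub binding.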

Cbl-b [2] = target: T1, Cbl-b; assay: Cbl-b activity assay (Cbl-b inhibition assay), TR-FRET of Cbl-b interaction with UbcH5B-Ub; assay type: biochemical; conditions: assay buffer with 100 mM NaCl, 60 nM Src kinase; read-out: Cbl-b activity IC50
How it was run: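 TR-FRET readout of Cbl-b binding to Bodipy-fluorescein N-terminally labeled Ub conjugated to UbcH5B C85K, measured with compound present. After compound incubation, 60 nM Src kinase with 1 mM ATP and 5 mM MgCl2 (final) was added for 1.5 h, then a further 1 h incubation; asterisked values used 50 mM NaCl buffer and 30 nM Src.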

T-cell [3] = assay: CD25 cell surface staining on T-cells co-stimulated with anti-CD3 and anti-CD28 antibody (Biological Example 2); assay type: cell-based, human; conditions: Homo sapiens, T-cell, fold change over baseline (anti-CD3/anti-CD28 stimulated T-cells without inhibitor), read-out: CD25 staining Anti-CD3/Anti-CD28 stimulation; for fold induction at 0.3 µM: 0.3 μM Cbl-b inhibitor; for fold induction at 1 µM: 1 μM Cbl-b inhibitor
How it was run: (§1)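 No assay protocol given; T-cells stimulated with anti-CD3 alone or anti-CD3 plus anti-CD28, with or without Cbl-b inhibitor. Activation read as IL-2 secretion or CD25 surface staining, expressed as fold over baseline from uninhibited cells […].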

T-cell [4] = assay: CD25 cell surface staining on T-cells stimulated with anti-CD3 antibody alone (Biological Example 2); assay type: cell-based, human; conditions: Homo sapiens, T-cell; 1 μM Cbl-b inhibitor; fold change over baseline (anti-CD3/anti-CD28 stimulated T-cells without inhibitor); read-out: CD25 staining Anti-CD3 stimulation
T-cell [5] = assay: IL-2 secretion from T-cells stimulated with anti-CD3 antibody alone (Biological Example 2); assay type: cell-based, human; conditions: Homo sapiens, T-cell; 1 μM Cbl-b inhibitor; fold change over baseline (anti-CD3/anti-CD28 stimulated T-cells without inhibitor); read-out: IL-2 secretion Anti-CD3 stimulation
T-cell [6] = assay: IL-2 secretion from T-cells co-stimulated with anti-CD3 and anti-CD28 antibody (Biological Example 2); assay type: cell-based, human; conditions: Homo sapiens, T-cell, fold change over baseline (anti-CD3/anti-CD28 stimulated T-cells without inhibitor), read-out: IL-2 secretion Anti-CD3/Anti-CD28 stimulation; for fold induction at 0.3 µM: 0.3 μM Cbl-b inhibitor; for fold induction at 1 µM: 1 μM Cbl-b inhibitor
How it was run: as §1

T1 sequence (Q13191 36-427): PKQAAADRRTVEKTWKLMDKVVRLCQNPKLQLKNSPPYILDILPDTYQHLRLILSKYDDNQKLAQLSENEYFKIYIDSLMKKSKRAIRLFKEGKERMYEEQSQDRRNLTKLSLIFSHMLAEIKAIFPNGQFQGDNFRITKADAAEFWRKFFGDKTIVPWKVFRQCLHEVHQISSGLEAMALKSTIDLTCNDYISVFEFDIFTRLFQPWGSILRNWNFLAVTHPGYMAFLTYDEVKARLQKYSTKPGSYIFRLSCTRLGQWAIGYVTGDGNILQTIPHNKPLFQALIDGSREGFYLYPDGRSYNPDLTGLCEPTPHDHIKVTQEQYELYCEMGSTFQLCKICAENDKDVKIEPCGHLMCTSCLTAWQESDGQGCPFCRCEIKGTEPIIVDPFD

SMILES	IC50 (Cbl-b [1]) [nM]	IC50 (Cbl-b [2]) [nM]	fold induction at 0.3 µM (T-cell [3])	fold induction at 1 µM (T-cell [3])	fold induction at 1 µM (T-cell [4])	fold induction at 1 µM (T-cell [5])	fold induction at 0.3 µM (T-cell [6])	fold induction at 1 µM (T-cell [6])
Cc1cc(C(=O)Nc2cccc(C3([C@H](F)c4nncn4C)COC3)c2)nc(C2CC2)n1 [Example 669a, (S)-2-cyclopropyl-N-(3-(3-(fluoro(4-methyl-4H-1,2,4-triazol-3-yl)methyl)oxetan-3-yl)phenyl)-6-methylpyrimidine-4-carboxamide]	≤ 100	< 100	1.01 to 1.3	1.01 to 1.3	> 1	0.151 to 0.2	2.51 to 5	5 to 7.5
Cc1cc(C(=O)Nc2cccc(C3([C@@H](F)c4nncn4C)COC3)c2)nc(C2CC2)n1 [Example 669b, (R)-2-cyclopropyl-N-(3-(3-(fluoro(4-methyl-4H-1,2,4-triazol-3-yl)methyl)oxetan-3-yl)phenyl)-6-methylpyrimidine-4-carboxamide]	≤ 100	< 100	1.01 to 1.3	1.31 to 1.5	> 1	> 0.201	2.51 to 5	> 7.5
Cn1cnnc1[C@@H](F)C1(c2cccc(N3Cc4c(cc(CN5C6CCC5CC6)cc4C(F)(F)F)C3=O)c2)COC1 [Example 671a, (S)-6-((7-azabicyclo[2.2.1]heptan-7-yl)methyl)-2-(3-(3-(fluoro(4-methyl-4H-1,2,4-triazol-3-yl)methyl)oxetan-3-yl)phenyl)-4-(trifluoromethyl)isoindolin-1-one]	≤ 100	< 100	1.51 to 1.75	> 1.76	0.601 to 0.8	> 0.201	2.51 to 5	5 to 7.5
Cn1cnnc1[C@H](F)C1(c2cccc(N3Cc4c(cc(CN5C6CCC5CC6)cc4C(F)(F)F)C3=O)c2)COC1 [Example 671b, (R)-6-((7-azabicyclo[2.2.1]heptan-7-yl)methyl)-2-(3-(3-(fluoro(4-methyl-4H-1,2,4-triazol-3-yl)methyl)oxetan-3-yl)phenyl)-4-(trifluoromethyl)isoindolin-1-one]	≤ 100	< 100	> 1.76	> 1.76	> 1	> 0.201	> 7.5	> 7.5
Cn1cnnc1[C@@H](F)C1(c2cccc(N3Cc4c(cc(CN5[C@@H]6CC[C@H]5C[C@@H](F)C6)cc4C(F)(F)F)C3=O)c2)COC1 [Example 672a, 2-(3-(3-((S)-fluoro(4-methyl-4H-1,2,4-triazol-3-yl)methyl)oxetan-3-yl)-phenyl)-6-(((1R,3S,5S)-3-fluoro-8-azabicyclo[3.2.1]octan-8-yl)methyl)-4-(trifluoromethyl)isoindolin-1-one]	≤ 100	< 100	> 1.76	> 1.76	0.801 to 1	> 0.201	2.51 to 5	> 7.5
Cn1cnnc1[C@H](F)C1(c2cccc(N3Cc4c(cc(CN5[C@@H]6CC[C@H]5C[C@@H](F)C6)cc4C(F)(F)F)C3=O)c2)COC1 [Example 672b, 2-(3-(3-((R)-fluoro(4-methyl-4H-1,2,4-triazol-3-yl)methyl)oxetan-3-yl)phenyl)-6-(((1R,3R,5S)-3-fluoro-8-azabicyclo[3.2.1]octan-8-yl)methyl)-4-(trifluoromethyl)isoindolin-1-one]	≤ 100	< 100	> 1.76	> 1.76	> 1	> 0.201	> 7.5	> 7.5
Cn1cnnc1[C@@H](F)C1(c2cccc(N3Cc4c(cc(CN5CCCC5)cc4C(F)(F)F)C3=O)c2)COC1 [Example 673a, (S)-2-(3-(3-(fluoro(4-methyl-4H-1,2,4-triazol-3-yl)methyl)oxetan-3-yl)phenyl)-6-(pyrrolidin-1-ylmethyl)-4-(trifluoromethyl)isoindolin-1-one]	≤ 100	< 100	> 1.76	> 1.76	0.801 to 1	> 0.201	5 to 7.5	> 7.5
Cn1cnnc1[C@H](F)C1(c2cccc(N3Cc4c(cc(CN5CCCC5)cc4C(F)(F)F)C3=O)c2)COC1 [Example 673b, (R)-2-(3-(3-(fluoro(4-methyl-4H-1,2,4-triazol-3-yl)methyl)oxetan-3-yl)phenyl)-6-(pyrrolidin-1-ylmethyl)-4-(trifluoromethyl)isoindolin-1-one]	≤ 100	< 100	1.31 to 1.5	1.31 to 1.5	> 1	> 0.201	> 7.5	> 7.5
Cn1cnnc1[C@@H](F)C1(c2cccc(N3Cc4c(cc(CN5CCCCC5)cc4C(F)(F)F)C3=O)c2)COC1 [Example 674a, (S)-2-(3-(3-(fluoro(4-methyl-4H-1,2,4-triazol-3-yl)methyl)oxetan-3-yl)phenyl)-6-(piperidin-1-ylmethyl)-4-(trifluoromethyl)isoindolin-1-one]	≤ 100	< 100	1.31 to 1.5	1.51 to 1.75	> 1	0.101 to 0.15	> 7.5	> 7.5
Cn1cnnc1[C@H](F)C1(c2cccc(N3Cc4c(cc(CN5CCCCC5)cc4C(F)(F)F)C3=O)c2)COC1 [Example 674b, (R)-2-(3-(3-(fluoro(4-methyl-4H-1,2,4-triazol-3-yl)methyl)oxetan-3-yl)phenyl)-6-(piperidin-1-ylmethyl)-4-(trifluoromethyl)isoindolin-1-one]	≤ 100	< 100	1.01 to 1.3	1.01 to 1.3	> 1	> 0.201	> 7.5	> 7.5
Cn1cnnc1[C@@H](F)C1(c2cccc(N3Cc4c(cc(CN5C6CCCC5CC6)cc4C(F)(F)F)C3=O)c2)COC1 [Example 675a, 6-((8-azabicyclo[3.2.1]octan-8-yl)methyl)-2-(3-(3-((S)-fluoro(4-methyl-4H-1,2,4-triazol-3-yl)methyl)oxetan-3-yl)phenyl)-4-(trifluoromethyl)isoindolin-1-one]	≤ 100	< 100	1.01 to 1.3	1.31 to 1.5	> 1	0.101 to 0.15	2.51 to 5	5 to 7.5
Cn1cnnc1[C@H](F)C1(c2cccc(N3Cc4c(cc(CN5C6CCCC5CC6)cc4C(F)(F)F)C3=O)c2)COC1 [Example 675b, 6-((8-azabicyclo[3.2.1]octan-8-yl)methyl)-2-(3-(3-((R)-fluoro(4-methyl-4H-1,2,4-triazol-3-yl)methyl)oxetan-3-yl)phenyl)-4-(trifluoromethyl)isoindolin-1-one]	≤ 100	< 100	1.31 to 1.5	1.31 to 1.5	> 1	> 0.201	> 7.5	> 7.5
Cc1cc(C(=O)Nc2cccc(C3(C(F)(F)c4nncn4C)COC3)c2)nc(C2CC2)n1 [Example 676, 2-cyclopropyl-N-(3-(3-(difluoro(4-methyl-4H-1,2,4-triazol-3-yl)methyl)oxetan-3-yl)phenyl)-6-methylpyrimidine-4-carboxamide]	≤ 100	< 100	1.01 to 1.3	1.31 to 1.5	0.801 to 1	0.101 to 0.15	2.51 to 5	5 to 7.5
Cc1cc2c(c(C3CC3)n1)CN(c1cccc(C3(C(F)(F)c4nncn4C)COC3)c1)C2=O [Example 677, 4-cyclopropyl-2-(3-(3-(difluoro(4-methyl-4H-1,2,4-triazol-3-yl)methyl)oxetan-3-yl)phenyl)-6-methyl-2,3-dihydro-1H-pyrrolo[3,4-c]pyridin-1-one]	≤ 1000	301 to 1000	1.01 to 1.3	1.01 to 1.3	0.601 to 0.8	0.051 to 0.1	1.01 to 2.5	1.01 to 2.5

From US20220324835A1 (Nurix Therapeutics, Inc., priority 2018, published 2022)
